Test results: ChEMBL document CHEMBL5550217, “Discovery of gem-Dimethyl-hydroxymethylpyridine Derivatives as Potent Non-nucleoside RSV Polymerase Inhibitors” (J Med Chem, 2024)
Activity calls are given as the source filed them. The rule behind the calls is not given here.

Key:
[1] = Plasma protein binding in mouse assessed as free fraction; type: ADME, cell-free
Human orthopneumovirus [2] = experiment: In vivo antiviral activity against Human respiratory syncytial virus (RSV) M37 infected in lamb model assessed as reduction in BALF peak viral titer in lung treated orally QD from 1 until 5 day post infection; type: functional, organism-based; details: dose 0.4-4 mg/kg, route po
[3] = Volume of distribution at steady state in Sprague-Dawley rat at 1.25 mg/kg, iv measured upto 24 hrs by LC-MS/MS analysis; type: ADME, organism-based; details: in vivo, read-out: Vdss
[4] = Plasma protein binding in dog assessed as free fraction; type: ADME, cell-free, Canis lupus familiaris
[5] = Volume of distribution at steady state in Balb/c mouse at 2.5 mg/kg, iv measured upto 24 hrs by LC-MS/MS analysis; type: ADME, organism-based; details: in vivo, read-out: Vdss
[6] = Half life in Balb/c mouse at 2.5 mg/kg, iv measured upto 24 hrs by LC-MS/MS analysis; type: ADME, organism-based; details: in vivo
[7] = Metabolic stability in rat hepatocytes assessed as intrinsic clearance per 10^6 cells at 1 uM measured upto 180 mins by LC-MS/MS analysis; type: ADME, cell-based, Hepatocyte; details: read-out: CLH
[8] = Metabolic stability in dog hepatocytes assessed as intrinsic clearance per 10^6 cells at 1 uM measured upto 180 mins by LC-MS/MS analysis; type: ADME, cell-based, Canis lupus familiaris, Hepatocyte; details: read-out: CLH
[9] = Clearance in Beagle dog at 0.5 mg/kg, iv measured upto 24 hrs by LC-MS/MS analysis; type: ADME, organism-based, Canis lupus familiaris; details: in vivo
[10] = Lipophilicity, logD of the compound; type: physicochemical; details: octanol/water
[11] = Clearance in Balb/c mouse at 2.5 mg/kg, iv measured upto 24 hrs by LC-MS/MS analysis; type: ADME, organism-based; details: in vivo
[12] = Half life in Sprague-Dawley rat at 1.25 mg/kg, iv measured upto 24 hrs by LC-MS/MS analysis; type: ADME, organism-based; details: in vivo
Human orthopneumovirus [13] = experiment: In vivo antiviral activity against Human respiratory syncytial virus (RSV) M37 infected in lamb model assessed as reduction in gross lesions in lung at 1 to 4 mg/kg, po QD from 1 until 5 day post infection; type: functional, organism-based; details: dose 1-4 mg/kg
[14] = Cytotoxicity against human HeLa cells measured after 3 days by ATPlite kit assay; type: toxicity, cell-based; details: time 3 day
[15] = Half life in Beagle dog at 0.5 mg/kg, iv measured upto 24 hrs by LC-MS/MS analysis; type: ADME, organism-based, Canis lupus familiaris; details: in vivo
Human orthopneumovirus [16] = experiment: In vivo antiviral activity against Human respiratory syncytial virus (RSV) M37 infected in lamb model assessed as reduction in microscopic lesions in lung at 1 to 4 mg/kg, po QD from 1 until 5 day post infection; type: functional, organism-based; details: dose 1-4 mg/kg
Human orthopneumovirus [17] = experiment: In vivo antiviral activity against Human respiratory syncytial virus (RSV) M37 infected in lamb model assessed as reduction in RSV cells in lung at 0.25 to 4 mg/kg, po QD from 1 until 5 day post infection by branched DNA technology (RNAscope); type: functional, organism-based; details: dose 0.25-4 mg/kg
[18] = Plasma protein binding in rat assessed as free fraction; type: ADME, cell-free
[19] = AUC (0 to last) in Balb/c mouse at 10 mg/kg, po measured upto 24 hrs by LC-MS/MS analysis; type: ADME, organism-based; details: in vivo
[20] = Ratio of drug concentration in Sprague-Dawley rat lung to plasma at 5 mg/kg, po measured upto 24 hrs by LC-MS/MS analysis; type: ADME, organism-based
[21] = Volume of distribution at steady state in Beagle dog at 0.5 mg/kg, iv measured upto 24 hrs by LC-MS/MS analysis; type: ADME, organism-based, Canis lupus familiaris; details: in vivo, read-out: Vdss
[22] = AUC (0 to last) in Sprague-Dawley rat at 5 mg/kg, po measured upto 24 hrs by LC-MS/MS analysis; type: ADME, organism-based; details: in vivo
Human orthopneumovirus [23] = experiment: In vivo antiviral activity against Human respiratory syncytial virus (RSV)-A2 intranasally infected in BALB/c mouse assessed as reduction in viral RNA level in lung treated orally QD 1 hr prior infection until 3 day post infection by qRT-PCR analysis; type: functional, organism-based; details: dose 1-100 mg/kg, route po
[24] = tested on: Respiratory syncytial virus; experiment: Antiviral activity against Respiratory syncytial virus (RSV) infected in human APC-126 cells assessed as replicon by measuring protein adjusted effective concentration in the presence of 40% human serum measured after 3 days by Renilla Glo assay; type: functional, organism-based; details: 72 h
[25] = Metabolic stability in human hepatocytes assessed as intrinsic clearance per 10^6 cells at 1 uM measured upto 180 mins by LC-MS/MS analysis; type: ADME, cell-based, Hepatocyte; details: read-out: CLH
[26] = Cmax in Sprague-Dawley rat at 5 mg/kg, po measured upto 24 hrs by LC-MS/MS analysis; type: ADME, organism-based; details: in vivo
P-glycoprotein = experiment: Efflux ratio of permeability in dog MDCK-MDR1 cells assessed as P-glycoprotein mediated efflux; type: ADME, cell-based, Canis lupus familiaris
Human orthopneumovirus [27] = experiment: In vivo antiviral activity against Human respiratory syncytial virus (RSV) M37 infected in lamb model assessed as reduction in viral RNA level in lung at 0.25 to 4 mg/kg, po QD from 1 until 5 day post infection by qRT-PCR analysis; type: functional, organism-based; details: dose 0.25-4 mg/kg
[28] = Inhibition of RSV RNA polymerase assessed as RNA products using […] template by SPA primer extension enzymatic assay; set-up: species or system Respiratory syncytial virus
[29] = Inhibition of human RSV-A strain Memphis 37 RNA polymerase; set-up: species or system Human respiratory syncytial virus A
Human orthopneumovirus [30] = experiment: In vivo antiviral activity against Human respiratory syncytial virus (RSV) M37 infected in lamb model assessed as lung histopathology score at 1 to 4 mg/kg, po QD from 1 until 5 day post infection by H and E staining based assay; type: functional, organism-based; details: dose 1-4 mg/kg
[31] = AUC (0 to last) in Beagle dog at 0.5 mg/kg, po measured upto 24 hrs by LC-MS/MS analysis; type: ADME, organism-based, Canis lupus familiaris; details: in vivo
Human orthopneumovirus [32] = experiment: In vivo antiviral activity against Human respiratory syncytial virus (RSV)-A2 intranasally infected in BALB/c mouse assessed as reduction in viral titer in lung treated orally QD 1 hr prior infection until 3 day post infection by plaque assay; type: functional, organism-based; details: dose 1-100 mg/kg, route po
[33] = Metabolic stability in mouse hepatocytes assessed as intrinsic clearance per 10^6 cells at 1 uM measured upto 180 mins by LC-MS/MS analysis; type: ADME, cell-based, Hepatocyte; details: read-out: CLH
[34] = Oral bioavailability in Beagle dog at 0.5 mg/kg measured upto 24 hrs by LC-MS/MS analysis; type: ADME, organism-based, Canis lupus familiaris; details: in vivo
[35] = Clearance in Sprague-Dawley rat at 1.25 mg/kg, iv measured upto 24 hrs by LC-MS/MS analysis; type: ADME, organism-based; details: in vivo
[36] = Oral bioavailability in Balb/c mouse at 10 mg/kg measured upto 24 hrs by LC-MS/MS analysis; type: ADME, organism-based; details: in vivo
[37] = Cmax in Beagle dog at 0.5 mg/kg, po measured upto 24 hrs by LC-MS/MS analysis; type: ADME, organism-based, Canis lupus familiaris; details: in vivo
Human orthopneumovirus [38] = experiment: In vivo antiviral activity against Human respiratory syncytial virus (RSV) M37 infected in lamb model assessed as reduction in viral titer in lung treated orally QD from 1 until 5 day post infection; type: functional, organism-based; details: dose 0.4-4 mg/kg, route po
[39] = Apparent permeability across apical to basolateral side in dog MDCK-MDR1 cells at 5 uM measured after 60 mins; type: ADME, cell-based, Canis lupus familiaris
[40] = Oral bioavailability in Sprague-Dawley rat at 5 mg/kg measured upto 24 hrs by LC-MS/MS analysis; type: ADME, organism-based; details: in vivo
[41] = Plasma protein binding in human assessed as free fraction; type: ADME, cell-free
[42] = tested on: Respiratory syncytial virus; experiment: Antiviral activity against Respiratory syncytial virus (RSV)-A2-eGFP infected in human HeLa cells assessed as eGFP expression measured after 3 days by RSV Cell-based infection assay; type: functional, organism-based; details: 72 h
[43] = Cmax in Balb/c mouse at 10 mg/kg, po measured upto 24 hrs by LC-MS/MS analysis; type: ADME, organism-based; details: in vivo

## COc1cc(C(=O)NC[C@](O)(c2cc(C(C)(C)O)c(F)c(-c3ccc(F)cc3)n2)C(F)(F)F)cc2cc(C)nnc12
[1]
  Fu: 0.45%
Human orthopneumovirus [2]
  Activity: Dose-Dependent Effect
[3]
  Vd: 1.04 L/kg
[4]
  Fu: 0.87%
[5]
  Vd: 1.68 L/kg
[6]
  half-life: 1.95 h
[7]
  hepatocyte CLint at 1 µM: 27 µL/min/1e6 cells
[8]
  hepatocyte CLint at 1 µM: 6.4 µL/min/1e6 cells
[9]
  clearance: 5.62 mL/min/kg
[10]
  logD: 3.55
[11]
  clearance: 10.6 mL/min/kg
[12]
  half-life: 3.15 h
Human orthopneumovirus [13]
  Activity: Active
[14]
  CC50 at 72 h: 27700 nM
[15]
  half-life: 4.25 h
Human orthopneumovirus [16]
  Activity: Active
Human orthopneumovirus [17]
  Activity: Active
[18]
  Fu: 0.13%
[19]
  AUC(0-t) at 24 h: 9580 ng·h/mL
[20]
  Kp at 24 h: 1
[21]
  Vd: 1.49 L/kg
[22]
  AUC(0-t) at 24 h: 2100 ng·h/mL
Human orthopneumovirus [23]
  Activity: Dose-Dependent Effect
[24]
  EC50: 13 nM
[25]
  hepatocyte CLint at 1 µM: < 1.9 µL/min/1e6 cells
[26]
  Cmax: 401 ng/mL
P-glycoprotein
  efflux ratio: > 93
Human orthopneumovirus [27]
  Activity: Active
[28]
  IC50: 0.29 nM
[29]
  IC50: 0.3 nM
Human orthopneumovirus [30]
  Activity: Active
[31]
  AUC(0-t) at 24 h: 1200 ng·h/mL
Human orthopneumovirus [32]
  Activity: Dose-Dependent Effect
[33]
  hepatocyte CLint at 1 µM: 6.2 µL/min/1e6 cells
[34]
  bioavailability: 81%
[35]
  clearance: 8.03 mL/min/kg
[36]
  bioavailability: 61%
[37]
  Cmax: 249 ng/mL
Human orthopneumovirus [38]
  Activity: Dose-Dependent Effect
[39]
  Papp A→B at 1 h, 5 µM: 9.8 ×10⁻⁶ cm/s
[40]
  bioavailability: 20%
[41]
  Fu: 0.66%
[42]
  EC50: 0.82 nM
[43]
  Cmax: 1730 ng/mL
